# System: Wnt/β-catenin signaling pathway
# Experiment: TCF-luciferase reporter gene assay (Wnt-3a stimulated HEK 293 cells)
# Assay type: cell-based
# Conditions: Homo sapiens, HEK293, Wnt-3a stimulation, read-out: Inhibitory activity against the Wnt/β-catenin signaling pathway
# Protocol: Evaluation of inhibitory activity of the compounds of the present invention against the Wnt/β-catenin signaling pathway was performed by evaluating the inhibitory activity of the compounds of the present invention against the Wnt/β-catenin signaling pathway activated by the Wnt-3a ligand using a commercially available TCF-luciferase reporter gene assay system.
# In a T75 flask, HEK 293 cells (ATCC No. CRL-1573) were added to a DMEM medium (manufactured by NACALAI TESQUE, INC., No. 08459-35) supplemented with 10% FBS (AusGeneX PTY LTD.) and 1% Penicillin/Streptomycin (NACALAI TESQUE, INC.). The cells in the flask were cultured in a 5% CO2 incubator.
# The cultured HEK 293 cells were diluted with a DMEM medium supplemented with only 10% FBS so as to have a cell concentration of 2×10^5 cells/mL, and 100 μL each of the diluted cells were seeded into respective wells of 96-well plates (PerkinElmer Inc., ViewPlate No. 6005181), followed by culturing overnight in the 5% CO2 incubator. To an OptiMEM medium (Invitrogen® No. 11058), pGL4.49 [luc2p/TCF-LEF-RE/Hygro] plasmid DNA (Promega Corporation) and FuGENE® HD (Promega No. E2691) were added so as to have concentrations of 1 μg/mL and 3 μg/mL, respectively, to prepare a transfection solution as described in the protocol attached to the reagent. To the respective wells containing the HEK 293 cells cultured overnight, 100 μL each of the transfection solution was added gently, followed by culturing overnight in the 5% CO2 incubator to perform transfection.
# To a DMEM medium, 0.5% charcoal/dextran treated Fetal Bovine Serum (Thermo Scientific No. SH30068.02) and LiCl (Sigma-Aldrich No. L9650) were added to prepare a LiCl-containing medium (final concentration of LiCl: 10 mM). The medium in the respective wells of the HEK 293 cells cultured overnight and transfected with a reporter gene was removed by decantation. The LiCl-containing medium (90 μL) was added gently to each well, followed by culturing overnight in the 5% CO2 incubator.
# A DMSO stock solution of the compound to be tested was diluted 100-fold with a LiCl-containing medium so as to prepare a solution of the compound to be tested, which is 10 times the test concentration. Further, Recombinant Mouse Wnt-3a (R&D Systems, Inc. #1324-WN) was dissolved in a 0.1% BSA-PBA solution so as to have a concentration of 40 μg/mL, and the resultant solution was diluted with a LiCl-containing medium so as to have a concentration of 100 ng/mL, to prepare a Wnt-3a solution. To each well of the HEK 293 cells cultured overnight in the LiCl-containing medium, 10 μL each of the solution of the compound to be tested was added, followed by culturing in the 5% CO2 incubator for 2 hours (the final concentration of the compound to be tested: 3-0.03 μM). Thereafter, 10 μL each of the Wnt-3a solution was added to the respective wells, followed by further culturing for 5 hours.
# Using ONE-Glo™ Luciferase Assay System (Promega Corporation, No. E6110), the luciferase activity of the cells in the wells was measured by a microplate reader (Synergy H1, BioTek Instruments, Inc.) An IC50 value was calculated from the luminescence intensity of each compound concentration, supposing that the luminescence intensity of a group with no addition of the compound and with Wnt-3a stimulation was 100%, and that the luminescence intensity of a group with no addition of the compound and with no Wnt-3a stimulation was 0%.
row,IC50 [nM],SMILES
1,< 300,"O[C@H]1CC[C@@H](Oc2cccc3cnc(Nc4ccc5[nH]c(CN6CCCC6)nc5c4)nc23)CC1 [Example 13, cis-4-[(2-{[2-(pyrrolidin-1-ylmethyl)-1H-benzo[d]imidazol-5-yl]amino}quinazolin-8-yl)oxy]cyclohexanol]"
2,300 to 1000,"OCc1nc2cc(Nc3ncc4cccc(O[C@H]5CC[C@@H](O)CC5)c4n3)ccc2[nH]1 [Example 14, cis-4-[(2-{[2-(hydroxymethyl)-1H-benzo[d]imidazol-5-yl]amino}quinazolin-8-yl)oxy]cyclohexanol]"
3,300 to 1000,"Cc1ccc2cnc(Nc3ccc4nc[nH]c4c3)nc2c1O[C@H]1CC[C@@H](O)CC1 [Example 17, cis-4-({2-[(1H-benzo[d]imidazol-6-yl)amino]-7-methylquinazolin-8-yl}oxy)cyclohexanol]"
4,300 to 1000,"Cc1nc2ccc(Nc3ncc4ccc(Br)c(O[C@H]5CC[C@@H](O)CC5)c4n3)cc2[nH]1 [Example 18, cis-4-({7-bromo-2-[(2-methyl-1H-benzo[d]imidazol-6-yl)amino]quinazolin-8-yl}oxy)cyclohexanol]"
5,1000 to 3000,"Cc1nc2c(Br)cc(Nc3ncc4cccc(O[C@H]5CC[C@@H](O)CC5)c4n3)cc2[nH]1 [Example 19, cis-4-({2-[(4-bromo-2-methyl-1H-benzo[d]imidazol-6-yl)amino]quinazolin-8-yl}oxy)cyclohexanol]"
6,300 to 1000,"Cc1nc2c(C)cc(Nc3ncc4cccc(O[C@H]5CC[C@@H](O)CC5)c4n3)cc2[nH]1 [Example 20, cis-4-({2-[(2,4-dimethyl-1H-benzo[d]imidazol-6-yl)amino]quinazolin-8-yl}oxy)cyclohexanol]"
7,300 to 1000,"COCc1nc2ccc(Nc3ncc4cccc(O[C@H]5CC[C@@H](O)CC5)c4n3)cc2[nH]1 [Example 25, cis-4-[(2-{[2-(methoxymethyl)-1H-benzo[d]imidazol-6-yl]amino}quinazolin-8-yl)oxy]cyclohexanol]"
8,1000 to 3000,"O[C@H]1CC[C@@H](Oc2cccc3cnc(Nc4ccc5nc(C(F)(F)F)[nH]c5c4)nc23)CC1 [Example 26, cis-4-((2-{[2-(trifluoromethyl)-1H-benzo[d]imidazol-6-yl]amino}quinazolin-8-yl)oxy)cyclohexanol]"
9,300 to 1000,"C[C@H](O)c1nc2ccc(Nc3ncc4cccc(O[C@H]5CC[C@@H](O)CC5)c4n3)cc2[nH]1 [Example 27, cis-4-{[2-({2-[(S)-1-hydroxyethyl]-1H-benzo[d]imidazol-6-yl}amino)quinazolin-8-yl]oxy}cyclohexanol]"
10,< 300,"OCc1cc(Nc2ncc3cccc(O[C@H]4CC[C@@H](O)CC4)c3n2)cc2[nH]cnc12 [Example 29, cis-4-[(2-{[4-(hydroxymethyl)-1H-benzo[d]imidazol-6-yl]amino}quinazolin-8-yl)oxy]cyclohexanol]"
11,300 to 1000,"Cc1cc2nc[nH]c2cc1Nc1ncc2cccc(O[C@H]3CC[C@@H](O)CC3)c2n1 [Example 30, cis-4-({2-[(5-methyl-1H-benzo[d]imidazol-6-yl)amino]quinazolin-8-yl}oxy)cyclohexanol]"
12,< 300,O[C@H]1CC[C@@H](Oc2c(Br)ccc3cnc(Nc4ccc5nc[nH]c5c4)nc23)CC1 [Example 31]
13,300 to 1000,"O[C@H]1CC[C@@H](Oc2cc(F)cc3cnc(Nc4ccc5nc[nH]c5c4)nc23)CC1 [Example 32, cis-4-({2-[(1H-benzo[d]imidazol-6-yl)amino]-6-fluoroquinazolin-8-yl}oxy)cyclohexanol]"
14,300 to 1000,"O[C@H]1CC[C@@H](Oc2cccc3cnc(Nc4ccc5ncccc5c4)nc23)CC1 [Example 35, cis-4-{[2-(quinolin-6-ylamino)quinazolin-8-yl]oxy}cyclohexanol]"
15,< 300,"O[C@H]1CC[C@@H](Oc2cccc3cnc(Nc4ccc5scnc5c4)nc23)CC1 [Example 36, cis-4-{[2-(benzo[d]thiazol-5-ylamino)quinazolin-8-yl]oxy}cyclohexanol]"
16,< 300,"O[C@H]1CC[C@@H](Oc2cccc3cnc(Nc4ccnc5ccccc45)nc23)CC1 [Example 37, cis-4-{[2-(quinolin-4-ylamino)quinazolin-8-yl]oxy}cyclohexanol]"
17,300 to 1000,"Cc1ccc2cc(Nc3ncc4cccc(O[C@H]5CC[C@@H](O)CC5)c4n3)ccc2n1 [Example 38, cis-4-({2-[(2-methylquinolin-6-yl)amino]quinazolin-8-yl}oxy)cyclohexanol]"
18,300 to 1000,"O[C@H]1CC[C@@H](Oc2cccc3cnc(Nc4ccc5cnccc5c4)nc23)CC1 [Example 39, cis-4-{[2-(isoquinolin-6-ylamino)quinazolin-8-yl]oxy}cyclohexanol]"
19,1000 to 3000,"O[C@H]1CC[C@@H](Oc2cccc3cnc(Nc4ccc5ccncc5c4)nc23)CC1 [Example 40, cis-4-{[2-(isoquinolin-7-ylamino)quinazolin-8-yl]oxy}cyclohexanol]"
20,300 to 1000,"O[C@H]1CC[C@@H](Oc2cccc3cnc(Nc4cccc5cnccc45)nc23)CC1 [Example 41, cis-4-{[2-(isoquinolin-5-ylamino)quinazolin-8-yl]oxy}cyclohexanol]"
21,< 300,"O[C@H]1CC[C@@H](Oc2c(F)ccc3cnc(Nc4ccc5ncsc5c4)nc23)CC1 [Example 42, cis-4-{[2-(benzo[d]thiazol-6-ylamino)-7-fluoroquinazolin-8-yl]oxy}cyclohexanol]"
22,< 300,"O[C@H]1CC[C@@H](Oc2c(F)ccc3cnc(Nc4ccc5ncccc5c4)nc23)CC1 [Example 43, cis-4-{[7-fluoro-2-(quinolin-6-ylamino)quinazolin-8-yl]oxy}cyclohexanol]"
23,< 300,"OCc1n[nH]c2cc(Nc3ncc4ccc(F)c(O[C@H]5CC[C@@H](O)CC5)c4n3)ccc12 [Example 44, cis-4-[(7-fluoro-2-{[3-(hydroxymethyl)-1H-indazol-6-yl]amino}quinazolin-8-yl)oxy]cyclohexanol]"
24,300 to 1000,"O[C@H]1CC[C@@H](Oc2cccc3cnc(Nc4ccnc5cc(F)ccc45)nc23)CC1 [Example 45, cis-4-({2-[(7-fluoroquinolin-4-yl)amino]quinazolin-8-yl}oxy)cyclohexanol]"
25,300 to 1000,"COc1ccc2c(Nc3ncc4cccc(O[C@H]5CC[C@@H](O)CC5)c4n3)ccnc2c1 [Example 46, cis-4-({2-[(7-methoxyquinolin-4-yl)amino]quinazolin-8-yl}oxy)cyclohexanol]"

# Reference: patent US9682961B2, “Quinazoline derivative” (CARNA BIOSCIENCES, INC., priority 2013, dated 2017)
